Measured values published in publication PMC12583827, “Harnessing microbial-derived metabolites in the urinary tract to prevent infection induced catheter encrustation” (Nature Communications, 2025).
Counter-ions that a name gives are not always drawn. Like-named read-outs stand apart in the source and are kept apart here.

What was measured:
P. mirabilis urease [1] = target: T1, P. mirabilis urease (Proteus mirabilis, UniProt P17086); format: cell-based; conditions: for Compound 2 %I alone: kphos; for Combination index (CI): in combination with AHA
T1 construct: it utilizes whole bacterial cells, rather than isolated enzyme preparations; endogenous in cells; host or cells: Proteus mirabilis HI4320, live whole cells
T1 sequence (P17086 whole entry): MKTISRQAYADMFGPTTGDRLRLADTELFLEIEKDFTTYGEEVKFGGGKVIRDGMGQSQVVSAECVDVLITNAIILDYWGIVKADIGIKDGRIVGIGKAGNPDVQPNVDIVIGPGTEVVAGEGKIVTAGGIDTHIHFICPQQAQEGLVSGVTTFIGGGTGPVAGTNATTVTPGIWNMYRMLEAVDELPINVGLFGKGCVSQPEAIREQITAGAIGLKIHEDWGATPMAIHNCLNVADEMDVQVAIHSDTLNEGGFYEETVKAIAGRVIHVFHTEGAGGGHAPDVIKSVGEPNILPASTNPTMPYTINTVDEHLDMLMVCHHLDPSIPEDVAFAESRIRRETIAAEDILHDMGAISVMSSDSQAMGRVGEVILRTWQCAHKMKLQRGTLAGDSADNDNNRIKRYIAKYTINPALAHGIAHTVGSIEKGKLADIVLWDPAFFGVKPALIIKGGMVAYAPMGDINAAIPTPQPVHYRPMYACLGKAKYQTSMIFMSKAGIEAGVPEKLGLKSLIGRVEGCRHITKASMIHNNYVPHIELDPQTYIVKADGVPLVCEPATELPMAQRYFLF
T1 sequence (P17088 whole entry, further chain): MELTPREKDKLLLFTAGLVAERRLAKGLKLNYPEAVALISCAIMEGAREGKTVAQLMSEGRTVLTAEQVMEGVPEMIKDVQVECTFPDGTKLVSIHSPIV
T1 sequence (P17087 whole entry, further chain): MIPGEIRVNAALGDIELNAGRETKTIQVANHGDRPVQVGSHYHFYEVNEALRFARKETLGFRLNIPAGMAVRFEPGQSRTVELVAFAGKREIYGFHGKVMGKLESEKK
Description: To assess the synergistic effects of dampening metabolites when used in combination with each other, P. mirabilis urease activity was measured as described above. Between 4-6 different concentrations for each dampening metabolite were tested both alone and in combination (See Fig. 6a for example). […] To account for variability between experiments, all conditions tested were performed on a single 96-well plate with three technical replicates for each condition. To compare between biologic replicates, percent inhibition relative to untreated P. mirabilis was calculated for each condition using the average area under the curve over 120-180 minutes (so that the positive control activity curve saturated without any increase in the negative control curve).
Statistical analysis was conducted using a one sample T test of the combination index compared to a hypothetical value of 1 (additive effect). […] Therefore, combination indexes were calculated using a desired effect size less than 40% were indicated with an * in Fig. 6b and in Supplementary Data 5.

[2] = target: T2, urease of P. mirabilis HI4320 cell free extracts (Proteus mirabilis, UniProt P17086); format: biochemical
T2 construct: 20ul of cell-free extract were distributed into a 96-well plate in place of the whole cell bacterial suspensions; endogenous in cells; host or cells: Proteus mirabilis HI4320, urea-induced; freeze-thaw and sonication lysate, clarified supernatant
T2 sequence (P17088 whole entry): as the sequence (P17088 whole entry, further chain) above
T2 sequence (P17086 whole entry): as the sequence (P17086 whole entry) above
T2 sequence (P17087 whole entry, further chain): as the sequence (P17087 whole entry, further chain) above
Description: To measure urease activity of the cell free extracts of P. mirabilis, P. mirabilis was cultured for ~18 h in LB broth and then sub cultured until it reached mid-log growth phase (OD600 0.2-0.5). Cultures were spun down to pellet at 10,000 rcf for 10 minutes and resuspended in saline to a final OD600 of 1.0. Cultures were then diluted 1:10 in potassium phosphate buffer pH7 supplemented with 500 mM urea and incubated at 37 °C with shaking for 1 h to induce its urease enzyme production. The isogenic urease mutant Pm ureF::kan (Supplementary Data 1) served as negative control. Cultures then were spun down to pellet at 10,000 rcf for 10 minutes and resuspended in 2 mL saline. Cultures were subjected to four cycles of freezing in liquid nitrogen and thawing in a 37 °C water bath. Cultures were then probe sonicated (on ice) at 25% amplitude for 10 sec. Sonicated cultures were centrifuged at 18,900 Xg for 5 min and supernatants were transferred to a clean tube and stored on ice. To measure urease activity of cell free extracts, the previously described assay was modified such that 20ul of cell-free extract were distributed into a 96-well plate in place of the whole cell bacterial suspensions. Acetohydroxamic acid (AHA), was used as a positive control. Percent of maximum urease activity was calculated using Area Under the Curve (AUC) relative to untreated cell free extracts of P. mirabilis.

P. mirabilis urease [3] = target: T1, P. mirabilis urease; format: cell-based; conditions: for effect on P. mirabilis urease activity (whole cell): potassium phosphate buffer, dose response
Description: Urease activity was measured as described previously in triplicate with at least three biological replicates[21]. Briefly, bacteria were cultured for ~18 h in LB broth, concentrated to an OD600 of 4, washed once in saline, and diluted (1:10 for P. mirabilis and 1:50 for P. stuartii and M. morganii) into candidate dampening metabolites in potassium phosphate buffer or human urine pH7 and supplemented with 500 mM urea and 0.01% phenol red. Bacterial suspensions were distributed into a 96-well plate, incubated at 37 °C with double-orbital shaking in a Synergy H1 plate reader (BioTek), and absorbance (OD562) was measured every 60 seconds for 180 minutes. Isogenic urease mutants (Supplementary Data 1) served as negative controls for P. mirabilis and P. stuartii and a vehicle control served as a negative control for M. morganii.

[4] = target: T3, urease of P. mirabilis cell free extracts (Proteus mirabilis, UniProt P17086); format: biochemical; conditions: for type of urease inhibition: Michaelis-Menten parameters, Lineweaver-Burke plot
T3 construct: 20ul of cell-free extract were distributed into a 96-well plate in place of the whole cell bacterial suspensions; endogenous in cells; host or cells: Proteus mirabilis HI4320, urea-induced; freeze-thaw and sonication lysate, clarified supernatant
T3 sequence (P17086 whole entry): as the sequence (P17086 whole entry) above
T3 sequence (P17088 whole entry, further chain): as the sequence (P17088 whole entry, further chain) above
T3 sequence (P17087 whole entry, further chain): as the sequence (P17087 whole entry, further chain) above
Description: For the kinetic analysis of the urease reaction in the presence of urease dampening metabolites, urease activity assays were repeated with the P. mirabilis cell free extracts. Six different inhibitor concentrations that gave linear rates of reaction over a period of 120 min were tested for their effects on urease activity in the presence of urea concentrations ranging from 0 to 500 mM. Simple linear regression was performed on the absorbance (OD562) over 120 minutes for each condition and plotted as Initial velocity (slope) vs urea concentration. These initial hyperbolic plots were converted to double-reciprocal Lineweaver-Burke plots, and the pattern of inhibition inferred from the point of intersection of the lines. Finally, the Ki for a particular compound was determined by plotting the Km/Vmax ratio (the slope of the Lineweaver-Burke plots) of each line as a function of the inhibitor concentration as described by ref. [49]. The X-intercept corresponded to –Ki.

Jack Bean Urease (JBU) = target: T4, Jack Bean Urease (JBU) (Canavalia ensiformis, UniProt P07374); format: biochemical; conditions: for JBU activity: 0.1 U JBU, 500 mM urea
T4 construct: purchased Sigma-Aldrich
T4 sequence (P07374 whole entry, looked up): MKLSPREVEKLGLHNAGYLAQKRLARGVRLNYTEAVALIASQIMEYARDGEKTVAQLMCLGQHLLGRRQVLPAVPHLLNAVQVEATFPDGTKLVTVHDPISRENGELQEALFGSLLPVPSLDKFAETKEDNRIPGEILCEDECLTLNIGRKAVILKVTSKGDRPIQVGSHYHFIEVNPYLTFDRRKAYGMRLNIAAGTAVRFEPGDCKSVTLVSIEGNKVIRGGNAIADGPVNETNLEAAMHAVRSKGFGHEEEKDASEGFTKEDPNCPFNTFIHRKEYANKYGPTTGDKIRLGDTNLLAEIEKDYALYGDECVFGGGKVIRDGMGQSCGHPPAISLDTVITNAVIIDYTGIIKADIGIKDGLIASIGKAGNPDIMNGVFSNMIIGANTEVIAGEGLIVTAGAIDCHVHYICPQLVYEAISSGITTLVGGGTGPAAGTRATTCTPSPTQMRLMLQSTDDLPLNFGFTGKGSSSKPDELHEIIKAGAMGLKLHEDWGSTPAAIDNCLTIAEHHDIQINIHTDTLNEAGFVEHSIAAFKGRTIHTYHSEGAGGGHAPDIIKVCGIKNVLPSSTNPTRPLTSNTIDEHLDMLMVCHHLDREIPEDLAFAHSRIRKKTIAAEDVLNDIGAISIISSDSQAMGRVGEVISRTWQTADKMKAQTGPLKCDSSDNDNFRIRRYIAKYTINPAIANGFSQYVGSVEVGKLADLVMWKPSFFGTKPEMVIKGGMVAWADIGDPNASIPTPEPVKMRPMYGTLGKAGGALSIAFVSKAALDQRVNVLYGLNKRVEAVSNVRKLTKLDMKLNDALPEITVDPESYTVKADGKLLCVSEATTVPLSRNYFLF
Description: To measure Jack Bean urease activity, the previously described assay was modified such that 0.1 U (1U liberates 1 µmol of ammonia from urea per minute) of JBU (Sigma-Aldrich urease from Canavalia ensiformis) were distributed into a 96-well plate in place of the bacterial suspensions. Acetohydroxamic acid (AHA), was used as a positive control and a vehicle control was used as a negative control. Percent of maximum urease activity was calculated using Area Under the Curve (AUC) relative to untreated bacteria of interest or untreated JBU. Urease activity measurement in MRSA was adapted from a recently published semi quantitative assay (See Supplementary materials for details)[48].
414 Supplementary Figure 13. Microbial metabolites dampen activity of purified Jack Bean
415 Urease (JBU). 0.1 U of JBU (1U liberates 1 µmol of ammonia from urea per minute) was
416 incubated at 37 °C with shaking in urease-dampening metabolites, 500mM urea, and phenol red.
417 A urea analogue, AHA, served as the positive control for inhibition of JBU. Absorbance
418 (OD562) was measured every 60 seconds for 90 minutes, and activity is expressed as percent of
419 maximum activity (% Max Activity) relative to untreated JBU. Graphs show mean±SD for 3
420 independent experiments with 3 technical replicates each. Data were analyzed by two tailed one
421 sample t-test to a hypothetical value of 100% activity. ***P<0.001, **P<0.002, *P<0.033.
(1 picture or pasted object on this page, not shown here)

Compound | Compound 2 %I alone (P. mirabilis urease [1]; Compound 2 [] alone 0.0782, assay date 2024 08 07) [%] | Compound 2 %I alone (P. mirabilis urease [1]; Compound 2 [] alone 0.156, assay date 2024 08 07) [%] | Compound 2 %I alone (P. mirabilis urease [1]; Compound 2 [] alone 0.156, assay date 2024 08 09) [%] | urease activity of cell free P. mirabilis extracts [2] | sub-inhibitory concentrations that still decrease P. mirabilis urease activity (P. mirabilis urease [3]; concentrations not inhibiting growth/viability) [mM] | Urease dampening activity (P. mirabilis urease [3]; highest concentration tested 0.625mM) | effect on P. mirabilis urease activity (whole cell) (P. mirabilis urease [3]) | change of estimated Km on addition of metabolite [4] | change of estimated Vmax on addition of metabolite [4] | type of urease inhibition [4] | JBU activity (Jack Bean Urease (JBU)) | concentrations required to achieve a significant combination index (P. mirabilis urease [1]) [mM] | Combination index (CI) (P. mirabilis urease [1]) | Urease dampening activity (P. mirabilis urease [3]; screen of candidate metabolites, highest concentration tested 20mM, * Trending but not statistically significant, listed as Histamine HCl) | concentrations at which JBU activity was significantly inhibited (Jack Bean Urease (JBU)) [mM] | Dampens urease activity (P. mirabilis urease [3]; biosynthetic pathway/functional group screen, highest concentration tested 20mM)
O.O=C(O)[C@H](O)Cc1cnc[nH]1 [D-imidazole lactate, D-imidazolelactic acid hydrate] | 34.9 | 60.4 | 49.2 | at least partially inhibiting | ≤ 0.0391 | Yes | more potent activity profile compared to the L-imidazole lactate | remain roughly unchanged | decrease | non-competitive inhibition | inhibited | – | – | – | – | –
NCCc1c[nH]cn1 [Histamine, histamine dihydrochloride] | – | – | – | at least partially inhibiting | – | – | reproducibly decreased | increase | decrease | mixed inhibitors | – | < 50 | < 1 | Yes | > 20 | –
Cl.O=C(O)Cc1cnc[nH]1 [4-imidazole acetate, 2-(1H-Imidazol-5-yl)acetic acid hydrochloride] | – | – | – | at least partially inhibiting | – | – | additional hits | increase | decrease | mixed inhibitors | inhibited | < 50 | < 1 | – | – | Yes
